These results are taken from US20240140944A1, “NOVEL NAPHTHYRIDINONE DERIVATIVE HAVING INHIBITORY ACTIVITY AGAINST ECTONUCLEOTIDE PYROPHOSPHATASE-PHOSPHODIESTERASE AND USE THEREOF” (TXINNO BIOSCIENCE INC., priority 2020, published 2024).

The target in experiment [1] is T1, human recombinant ENPP1 enzymes (Homo sapiens, UniProt P22413).
T1 construct: purchased R & D systems
T1 sequence (P22413 1-925): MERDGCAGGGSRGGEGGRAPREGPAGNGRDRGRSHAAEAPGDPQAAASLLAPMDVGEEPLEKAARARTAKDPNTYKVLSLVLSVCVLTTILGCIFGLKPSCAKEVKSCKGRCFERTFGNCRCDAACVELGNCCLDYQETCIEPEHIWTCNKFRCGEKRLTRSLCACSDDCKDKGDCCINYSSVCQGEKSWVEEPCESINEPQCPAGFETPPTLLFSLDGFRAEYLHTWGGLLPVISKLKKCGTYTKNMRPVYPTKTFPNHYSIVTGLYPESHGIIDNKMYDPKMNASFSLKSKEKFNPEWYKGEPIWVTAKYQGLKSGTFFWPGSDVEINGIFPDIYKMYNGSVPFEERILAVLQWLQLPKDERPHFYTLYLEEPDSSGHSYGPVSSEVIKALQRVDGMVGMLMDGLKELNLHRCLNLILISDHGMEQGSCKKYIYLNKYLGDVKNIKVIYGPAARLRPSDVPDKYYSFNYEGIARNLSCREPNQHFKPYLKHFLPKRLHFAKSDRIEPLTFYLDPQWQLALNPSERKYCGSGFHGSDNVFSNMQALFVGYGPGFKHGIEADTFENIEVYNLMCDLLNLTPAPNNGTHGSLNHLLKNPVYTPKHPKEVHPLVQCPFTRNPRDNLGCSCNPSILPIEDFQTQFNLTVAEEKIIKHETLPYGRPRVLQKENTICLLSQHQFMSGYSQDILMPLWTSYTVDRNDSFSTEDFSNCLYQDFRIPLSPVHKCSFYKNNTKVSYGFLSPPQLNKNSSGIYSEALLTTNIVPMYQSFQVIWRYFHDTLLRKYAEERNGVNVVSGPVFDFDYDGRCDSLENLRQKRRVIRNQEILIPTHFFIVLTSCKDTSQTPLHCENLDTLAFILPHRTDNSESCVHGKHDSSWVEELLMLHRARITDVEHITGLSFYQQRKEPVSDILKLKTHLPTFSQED
The experiment in a line: ENPP1 Enzyme Assay with cGAMP Substrate (AMP-Glo). The format is biochemical. As to conditions: human recombinant ENPP1 3 ng/reaction, cGAMP 5 μM, 37° C. 90 minutes, average of two or more tests; read-out: Enzymatic activity IC50. As to the method:
ENPP1 hydrolyzes nucleotides or nucleotide derivatives to produce nucleoside-5′-monophosphate and pyrophosphate. In addition, ENPP1 hydrolyzes 2′,3′-cGAMP to produce 5′-adenosine monophosphate (AMP) and 5′-guanosine monophosphate (GMP). AMP produced from the reaction is measured using the AMP-Glo® kit (Promega). The AMP-Glo® kit contains two reagents. The first reagent terminates the AMP-producing enzymatic reaction, removes ATP and converts the produced AMP into ADP. The second reagent converts ADP to ATP which is used to generate luminescence in the luciferase reaction. The amount of luminescence measured is proportional to the amount of AMP produced by ENPP1.
The final reaction mixture contains 50 mM Tris (pH 8.5) buffer, 250 mM NaCl, 0.5 mM CaCl2), 1 μM ZnCl2, 5% glycerol and 1% DMSO. Serially diluted ENPP1 inhibitors (typically in the range of 10 μM to 0.5 nM) were pre-stored with human recombinant ENPP1 enzymes (R & D systems) at 3 ng/reaction and room temperature (RT) for 5 to 10 minutes. The reaction was initiated by addition of cGAMP (at a final concentration of 5 μM) and reacted at 37° C. for 90 minutes. At the end of the reaction, 10 μl of the AMP-Glo first reagent was added to stop the reaction and the result was stored at room temperature for 1 hour. After storage, 20 μl of an AMP detection solution (a mixture of AMP-Glo II reagent and Kinase-Glo at a ratio of 1:100) was added and stored at room temperature for 1 hour. Luminescence signals were measured using a Victor® plate reader (Perkin Elmer). The maximal activity control (containing enzymes and substrates in the presence of 1% DMSO; MAX) and the minimal activity control (containing substrates and 1% DMSO; MIN) were evaluated simultaneously. In each experiment, serially diluted reference ENPP1 inhibitors were tested as well. IC50, indicating % residual activity versus compound concentration was determined by fitting inhibition curves using the 3-parameter analysis of GraphPad Prism® software. Serially diluted samples of one compound were tested two or more times and an average IC50 of each compound was calculated.

The test system of experiment [2] is interferon regulatory factor 3 (IRF3) in HCT116-Dual cells. The experiment in a line: HCT116-Dual Cell Luciferase Assay (ISG54 promoter, IRF3 activity). The settings on record: ENPP1 inhibitor usually 10 μM plus cGAMP 10 μM, 48 hours, Lucia luciferase. Type of experiment: cell-based. The source says: HCT116-Dual™ cells express genes encoding luciferase secreted under the control of the interferon-stimulated gene 54 (ISG54) promoter along with five interferon-stimulated response elements. The HCT116-Dual™ cell line was used to measure and monitor the activity of interferon regulatory factor 3 (IRF3), which induces production of type I interferon and relates to downstream signaling, and Lucia secreted in the culture medium was used to generate luminescence in a luciferase reaction.
HCT116-Dual™ cells were cultured at 2×10^4 cells/well (93.4 μL) in a 96-well plate for one day in a DMEM medium containing 10% FBS and 25 mM HEPES (pH 7.2-7.5). The cells were treated with 3.3 μL of ENPP1 inhibitor (usually 10 μM) and then 3.3 μL of cGAMP (10 μM) to set the final volume to 100 μL (The final fraction of DMSO was 0.1%). The cells treated with ENPP1 inhibitor and cGAMP were cultured at 37° C. for 48 hours and 50 μL of Quanti-Luc reaction solution was added to 20 μL of cell culture medium to measure luciferase activity. The increase in interferon regulatory factor 3 (IRF3) by the compound compared to cGAMP was determined as fold.

Where a name gives a salt, the structure may show the parent alone. Where only a bound is given, the exact number is not on record here.

The term IC50 denotes the concentration at which inhibition is half-maximal. With `Cl.NS(=O)(=O)N(Cc1ccc(-c2ccnc3[nH]c(=O)ccc23)c(F)c1)C1CC1` [Example 58, N-cyclopropyl-N-(3-fluoro-4-(7-oxo-7,8-dihydro-1,8-naphthyridin-4-yl)benzyl)sulfamide hydrochloride], in experiment [1], the half-inhibitory concentration (IC50) was less than 1 µM. Besides, the “Cellular activity: increase in IRF3 by the compound compared to cGAMP, as fold” value (“Cellular activity: increase in IRF3 … as fold” for short) in experiment [2] is recorded as “B (1< Fold <2)”.
Turning to `CCN(CCc1cccc(Nc2ccnc3[nH]c(=O)ccc23)c1)S(N)(=O)=O` [Example 94, N-ethyl-N-(3-((7-oxo-7,8-dihydro-1,8-naphthyridin-4-yl)amino)phenethyl)sulfamide dihydrochloride], the IC50 in experiment [1] was less than 1 µM. For the same compound, the “Cellular activity: increase in IRF3 … as fold” value in experiment [2] is listed as “B (1< Fold <2)”.
On the same counts, the results for `Cl.O=c1ccc2c(-c3ccc(CNC4CC4)cc3F)ccnc2[nH]1` [Example 22, 5-(4-((cyclopropylamino)methyl)-2-fluorophenyl)-1,8-naphthyridin-2(1H)-one hydrochloride] are 1 to 10 µM and “B (1< Fold <2)”.
The like results for `CC(C)NCc1ccc(-c2ccnc3[nH]c(=O)ccc23)c(F)c1.Cl` [Example 21, 5-(2-fluoro-4-((isopropylamine)methyl)phenyl)-1,8-naphthyridin-2(1H)-one hydrochloride] were, in that order, more than 10 µM and “B (1< Fold <2)”.
With `C[C@@H](c1ccc(-c2ccnc3[nH]c(=O)ccc23)cc1)N(C)S(N)(=O)=O` [Example 61, (S)-(N-methyl-N-(1-(4-(7-oxo-7,8-dihydro-1,8-naphthyridin-4-yl)phenyl)ethyl)sulfamide hydrochloride], in experiment [1], the half-inhibitory concentration (IC50) was less than 1 µM. Further, the “Cellular activity: increase in IRF3 … as fold” value in experiment [2] is recorded as “B (1< Fold <2)”.
“5-(7-oxo-5,6,7,8-tetrahydro-1,8-naphthyridin-4-yl)isoindoline-2-sulfamide hydrochloride [Example 143]”: the “Cellular activity: increase in IRF3 … as fold” value in experiment [2] is reported as “B (1< Fold <2)”.
Same read-out and setting: the entry for `Cl.Nc1ccc(F)c(-c2ccnc3[nH]c(=O)ccc23)c1` [Example 8] is “B (1< Fold <2)”.
For the compound `CCOP(=O)(O)Cc1ccc(-c2ccnc3[nH]c(=O)ccc23)cc1` [Example 74, ethylhydrogen(4-(7-oxo-7,8-dihydro-1,8-naphthyridin-4-yl)benzyl)phosphonate], the 50% inhibitory concentration (IC50) in experiment [1] lay in the range of 1 to 10 µM.
For `CN(Cc1ccc(-c2ccnc3[nH]c(=O)ccc23)cc1)S(N)(=O)=O` [Example 50, N-methyl-N-(4-(7-oxo-7,8-dihydro-1,8-naphthyridin-4-yl)benzyl)sulfamide hydrochloride], the half-maximal inhibitory concentration (IC50) in experiment [1] is less than 1 µM.
With `Cl.Nc1ccc(F)c(-c2ccnc3[nH]c(=O)ccc23)c1` [Example 8, 5-(5-(amino-2-fluorophenyl)-1,8-naphthyridin-2(1H)-one hydrochloride], the IC50 in experiment [1] was more than 10 µM.
On the same count and under the same terms, next, `CC(C)(N)c1ccc(-c2ccnc3[nH]c(=O)ccc23)cc1` [Example 16, 5-(4-(2-aminopropan-2-yl)phenyl)-1,8-naphthyridin-2(1H)-one hydrochloride]: 1 to 10 µM; `NS(=O)(=O)N1CCc2ccc(Nc3ccnc4c3CCC(=O)N4)cc2C1` [Example 144, (7-(7-oxo-5,6,7,8-tetrahydro-1,8-naphthyridin-4-yl)amino)-3,4-dihydroisoquinoline-2(1H)-sulfamide hydrochloride]: less than 1 µM.
With `NS(=O)(=O)NCc1ccc(Nc2ccnc3[nH]c(=O)ccc23)c(Cl)c1` [Example 100, N-(3-chloro-4-((7-oxo-7,8-dihydro-1,8-naphthyridin-4-yl)amino)benzyl)sulfamide dihydrochloride], the concentration for half-maximal inhibition (IC50) in experiment [1] lay in the range of 1 to 10 µM.
With `CS(=O)(=O)NCc1cccc(-c2ccnc3c2CCC(=O)N3)c1` [Example 146, N-(3-(7-oxo-5,6,7,8-tetrahydro-1,8-naphthyridin-4-yl)benzyl)methanesulfonamide], the IC50 in experiment [1] lay within 1 to 10 µM.
Regarding `C[C@H](c1ccc(-c2ccnc3[nH]c(=O)ccc23)cc1)N(C)S(N)(=O)=O` [Example 59, (R)-(N-methyl-N-(1-(4-(7-oxo-7,8-dihydro-1,8-naphthyridin-4-yl)phenyl)ethyl)sulfamide hydrochloride], in experiment [1], the IC50 was less than 1 µM.
For the compound `NS(=O)(=O)NCc1ccc(-c2ccnc3[nH]c(=O)ccc23)cc1F` [Example 41, N-(2-fluoro-4-(7-oxo-7,8-dihydro-1,8-naphthyridin-4-yl)benzyl)sulfamide], in experiment [2], the “Cellular activity: increase in IRF3 … as fold” value is “B (1< Fold <2)”.
Consider `NS(=O)(=O)N1CCC2(CCN(c3ccnc4[nH]c(=O)ccc34)CC2)C1` [Example 126, 8-(7-oxo-7,8-dihydro-1,8-naphthyridin-4-yl)-2,8-diazaspiro[4,5]decane-2-sulfamide], for which the IC50 in experiment [1] was less than 1 µM.
Same read-out and setting: next, `NS(=O)(=O)N1CCc2cc(Nc3ccnc4[nH]c(=O)ccc34)c(F)cc2C1` [Example 106, (7-fluoro-6-((7-oxo-7,8-dihydro-1,8-naphthyridin-4-yl)amino)-3,4-dihydroisoquinolin-2(1H)-yl) sulfamide dihydrochloride]: less than 1 µM; `NCC1CCN(c2ccnc3[nH]c(=O)ccc23)CC1` [Example 114, 5-(4-(aminomethyl)piperidin-1-yl)-1,8-naphthyridin-2(1H)-one hydrochloride]: less than 1 µM.
For `Nc1ccc(Nc2ccnc3[nH]c(=O)ccc23)cc1` [Example 81, 5-((4-aminophenyl)amino)-1,8-naphthyridin-2(1H)-one dihydrochloride], the 50% inhibitory concentration (IC50) in experiment [1] is less than 1 µM.
`CC(C)(C)OC(=O)NS(=O)(=O)NCc1ccc(-c2ccnc3[nH]c(=O)ccc23)cc1` [Example 32, tert-butyl(N-(4-(7-oxo-7,8-dihydro-1,8-naphthyridin-4-yl)benzyl)sulfamoyl)carbamate]: the IC50 in experiment [1] is less than 1 µM.
On the same count and under the same terms, next, `O=c1ccc2c(Nc3ccc4c(c3)CCNC4)ccnc2[nH]1` [Example 85, 5-((1,2,3,4-tetrahydroisoquinolin-6-yl)amino)-1,8-naphthyridin-2(1H)-one dihydrochloride]: less than 1 µM; `Nc1cccc(-c2ccnc3c2CCC(=O)N3)c1` [Example 131, 5-(3-(aminophenyl)-3,4-dihydro-1,8-naphthyridin-2(1H)-one hydrochloride]: 1 to 10 µM.
